Test system: rhizoctonia solani
Experiment: Antifungal rate (inhibition of hypha growth) on potato glucose culture medium plates
Assay type: cell-based
Conditions: 16 mg/L in potato glucose culture medium, 28° C.

Structure (SMILES): NC(=O)c1cccc2nc3ccccc3nc12 [phenazine-1-carboxamide]
- antifungal activity (antifungal rate) against rhizoctonia solani (acidity (pH) 4.0): 65%
- antifungal activity (antifungal rate) against rhizoctonia solani (acidity (pH) 5.0): 69%
- antifungal activity (antifungal rate) against rhizoctonia solani (acidity (pH) 6.0): 73.6%
- antifungal activity (antifungal rate) against rhizoctonia solani (acidity (pH) 7.0): 80.1%
- antifungal activity (antifungal rate) against rhizoctonia solani (acidity (pH) 8.0): 90%

— patent US9491943B2, “Bioengineering strain for production of novel microorganism-originated fungicides and uses thereof” (SHANGHAI JIAOTONG UNIVERSITY, priority 2011, dated 2016)
